In patent publication US9056874B2, “Complement pathway modulators and uses thereof” (NOVARTIS AG, priority 2012, dated 2015):

What follows are compounds tested against factor B (Homo sapiens, UniProt P00751) (assay: factor B inhibition assay of Biological Example 1). Conditions: IC50 (nM), assay of Biological Example 1 (Table 1).
Type: biochemical
Parameters: CVF-Bb complex prepared from purified cobra venom factor (1 μM), recombinant human complement factor B; made in house; host or cells: drosophila cells (factor B); E. coli (factor D used to form the complex)

Sequence of factor B (P00751 260-764 limits assumed): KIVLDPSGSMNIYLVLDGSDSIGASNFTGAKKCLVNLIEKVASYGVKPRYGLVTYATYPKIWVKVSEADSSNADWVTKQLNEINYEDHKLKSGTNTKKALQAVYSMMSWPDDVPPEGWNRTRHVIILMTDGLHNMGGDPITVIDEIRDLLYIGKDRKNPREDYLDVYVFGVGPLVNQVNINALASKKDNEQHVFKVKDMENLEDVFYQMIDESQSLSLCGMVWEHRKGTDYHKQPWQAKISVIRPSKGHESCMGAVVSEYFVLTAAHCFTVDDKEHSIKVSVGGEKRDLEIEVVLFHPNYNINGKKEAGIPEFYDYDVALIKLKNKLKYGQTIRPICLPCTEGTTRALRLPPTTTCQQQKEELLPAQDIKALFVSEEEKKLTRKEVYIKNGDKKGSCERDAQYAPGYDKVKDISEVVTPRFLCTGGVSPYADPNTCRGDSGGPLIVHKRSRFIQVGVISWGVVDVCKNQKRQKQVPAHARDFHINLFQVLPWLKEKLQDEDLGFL
Sequence of factor B (Q91132 23-649 partner limits assumed): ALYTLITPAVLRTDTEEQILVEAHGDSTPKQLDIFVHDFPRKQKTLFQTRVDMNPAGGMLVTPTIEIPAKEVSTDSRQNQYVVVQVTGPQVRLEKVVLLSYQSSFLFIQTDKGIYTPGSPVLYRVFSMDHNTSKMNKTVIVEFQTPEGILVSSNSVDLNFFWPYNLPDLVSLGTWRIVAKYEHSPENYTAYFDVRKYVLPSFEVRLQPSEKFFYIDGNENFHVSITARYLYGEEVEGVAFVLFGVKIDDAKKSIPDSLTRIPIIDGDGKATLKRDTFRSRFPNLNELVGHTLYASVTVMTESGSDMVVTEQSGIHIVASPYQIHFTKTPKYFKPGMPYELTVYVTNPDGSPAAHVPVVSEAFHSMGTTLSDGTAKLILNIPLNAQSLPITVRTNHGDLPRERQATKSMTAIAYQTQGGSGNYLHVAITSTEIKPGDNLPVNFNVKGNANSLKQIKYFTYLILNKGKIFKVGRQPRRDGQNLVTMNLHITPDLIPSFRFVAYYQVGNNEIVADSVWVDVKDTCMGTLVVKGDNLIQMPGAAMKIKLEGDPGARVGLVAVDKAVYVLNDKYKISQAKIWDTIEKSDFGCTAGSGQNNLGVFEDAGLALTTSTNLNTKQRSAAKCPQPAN
Sequence of factor B (Q91132 733-984 partner limits assumed): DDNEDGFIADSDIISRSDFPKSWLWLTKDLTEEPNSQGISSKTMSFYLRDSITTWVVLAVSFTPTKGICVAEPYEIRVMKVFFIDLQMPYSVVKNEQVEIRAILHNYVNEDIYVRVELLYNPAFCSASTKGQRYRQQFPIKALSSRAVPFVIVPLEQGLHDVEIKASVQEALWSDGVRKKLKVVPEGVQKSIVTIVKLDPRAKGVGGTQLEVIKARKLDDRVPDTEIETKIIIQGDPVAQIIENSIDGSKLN
Sequence of factor B (Q91132 1264-1642 partner limits assumed): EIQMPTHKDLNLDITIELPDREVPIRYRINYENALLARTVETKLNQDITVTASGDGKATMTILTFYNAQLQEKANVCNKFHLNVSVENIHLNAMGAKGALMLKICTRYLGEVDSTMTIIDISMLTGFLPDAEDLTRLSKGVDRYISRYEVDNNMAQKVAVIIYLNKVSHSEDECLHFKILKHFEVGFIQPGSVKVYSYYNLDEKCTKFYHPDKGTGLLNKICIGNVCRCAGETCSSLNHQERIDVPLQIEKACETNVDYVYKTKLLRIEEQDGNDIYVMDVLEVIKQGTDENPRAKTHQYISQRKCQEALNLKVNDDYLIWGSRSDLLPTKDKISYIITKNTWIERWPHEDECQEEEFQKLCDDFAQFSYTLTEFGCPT

`Cc1cc(CC(C)C)c(C(C)(O)c2nc3cc(C#N)ccc3[nH]2)c2cc[nH]c12` (single isomer, unassigned; (+)) [79-D b) (+), (+)-2-(1-hydroxy-1-(5-isobutyl-7-methyl-1H-indol-4-yl)ethyl)-1H-benzo[d]imidazole-5-carbonitrile] was tested. Which IC50 did it give?
Its IC50 is 2240 nM.

For `Cc1cc(Cl)c(C(C)(O)c2nc3cc(C#N)ccc3[nH]2)c2cc[nH]c12` (single isomer, unassigned; (+)) [79-E b) (+), (+)-2-(1-(5-chloro-7-methyl-1H-indol-4-yl)-1-hydroxyethyl)-1H-benzo[d]imidazole-5-carbonitrile], which IC50 is on record?
The IC50 was 1120 nM.

Which IC50 does the source give for `CCc1cc(C)c2[nH]ccc2c1C(O)(c1nc2cc(C#N)ccc2[nH]1)C(F)(F)F` (single isomer, unassigned; (+)) [80-C b) (+), (+)-2-(1-(5-ethyl-7-methyl-1H-indol-4-yl)-2,2,2-trifluoro-1-hydroxyethyl)-1H-benzo[d]imidazole-5-carbonitrile] here?
The IC50 was 380 nM.

For `Cc1cc(C)c2[nH]ccc2c1C(O)(c1nc2cc(C#N)ccc2[nH]1)C(F)(F)F` (single isomer, unassigned; (+)) [80-D b) (+), (+)-2-(1-(5,7-dimethyl-1H-indol-4-yl)-2,2,2-trifluoro-1-hydroxyethyl)-1H-benzo[d]imidazole-5-carbonitrile], which IC50 is on record?
The IC50 was 4330 nM.

For `Cc1cc(C2CC2)c(C(O)(c2nc3cc(C#N)ccc3[nH]2)C(F)(F)F)c2cc[nH]c12` (single isomer, unassigned; (+)) [80-E b) (+), (+)-2-(1-(5-cyclopropyl-7-methyl-1H-indol-4-yl)-2,2,2-trifluoro-1-hydroxyethyl)-1H-benzo[d]imidazole-5-carbonitrile], which IC50 is on record?
The IC50 was 180 nM.

`Cc1cc(C(C)C)c(C(O)(c2nc3cc(C#N)ccc3[nH]2)C(F)(F)F)c2cc[nH]c12` (single isomer, unassigned; (+)) [80-F b) (+), (+)-2-(2,2,2-trifluoro-1-hydroxy-1-(5-isopropyl-7-methyl-1H-indol-4-yl)ethyl)-1H-benzo[d]imidazole-5-carbonitrile] was tested. Which IC50 did it give?
The IC50 was 690 nM.

`COC(C)(c1nc2cc(C#N)ccc2[nH]1)c1c(C)cc(C)c2[nH]ccc12` (single isomer, unassigned; (+)) [84-B b) (+), (+)-2-(1-(5,7-dimethyl-1H-indol-4-yl)-1-methoxyethyl)-1H-benzo[d]imidazole-5-carbonitrile] was tested. Which IC50 did it give?
Its IC50 is 710 nM.

With `CCc1cc(C)c2[nH]ccc2c1C(C)(OC)c1nc2cc(C#N)ccc2[nH]1` (single isomer, unassigned; (+)) [84-C b) (+), (+)-2-(1-(5-ethyl-7-methyl-1H-indol-4-yl)-1-methoxyethyl)-1H-benzo[d]imidazole-5-carbonitrile] as the compound, how does the IC50 read?
Its IC50 is 150 nM.

`CCc1cc(C)c2[nH]ccc2c1C(OC)(c1nc2cc(C#N)ccc2[nH]1)C(F)(F)F` (single isomer, unassigned; (+)) [84-D b) (+), (+)-2-(1-(5-ethyl-7-methyl-1H-indol-4-yl)-2,2,2-trifluoro-1-methoxyethyl)-1H-benzo[d]imidazole-5-carbonitrile] was tested. Which IC50 did it give?
The IC50 was 460 nM.

Which IC50 does the source give for `COC(C)(c1nc2cc(C#N)ccc2[nH]1)c1c(CC(C)C)cc(C)c2[nH]ccc12` (single isomer, unassigned; (+)) [84-E b) (+), (+)-2-(1-(5-isobutyl-7-methyl-1H-indol-4-yl)-1-methoxyethyl)-1H-benzo[d]imidazole-5-carbonitrile] here?
Its IC50 is 1200 nM.

How did the IC50 turn out when `Cc1cc(C)c2[nH]ccc2c1C(N)c1nc2ccc(C#N)cc2[nH]1` (single isomer, unassigned; (+)) [95-B b) (+), (+)-2-(amino(5,7-dimethyl-1H-indol-4-yl)methyl)benzo[d]imidazole-5-carbonitrile] was run?
The IC50 was 2140 nM.

With `CCc1cc(C)c2[nH]ccc2c1C(N)c1nc2cc(C#N)ccc2[nH]1` (single isomer, unassigned; (+)) [96-C b) (+), (+)-2-(amino(5-ethyl-7-methyl-1H-indol-4-yl)methyl)-1H-benzo[d]imidazole-5-carbonitrile] as the compound, how does the IC50 read?
Its IC50 is 2210 nM.

Which IC50 does the source give for `CCc1cc(C)c2[nH]ccc2c1C(C)(N)c1nc2cc(C#N)ccc2[nH]1` (single isomer, unassigned; (+)) [102-C b) (+), (+)-2-(1-amino-1-(5-ethyl-7-methyl-1H-indol-4-yl)ethyl)-1H-benzo[d]imidazole-5-carbonitrile] here?
The IC50 was 50 nM.

With `Cc1cc(C2CC2)c(C(C)(N)c2nc3cc(C#N)ccc3[nH]2)c2cc[nH]c12` (single isomer, unassigned; (+)) [102-D b) (+), (+)-2-(1-amino-1-(5-cyclopropyl-7-methyl-1H-indol-4-yl)ethyl)-1H-benzo[d]imidazole-5-carbonitrile] as the compound, how does the IC50 read?
Its IC50 is 6 nM.

Which IC50 does the source give for `Cc1cc(Br)c(C(N)(c2nc3cc(C#N)ccc3[nH]2)C(F)(F)F)c2cc[nH]c12` (single isomer, unassigned; (+)) [105-B b) (+), (+)-2-(1-amino-1-(5-bromo-7-methyl-1H-indol-4-yl)-2,2,2-trifluoroethyl)-1H-benzo[d]imidazole-5-carbonitrile] here?
Its IC50 is 90 nM.

How did the IC50 turn out when `CNC(c1nc2cc(C#N)ccc2[nH]1)(c1c(Br)cc(C)c2[nH]ccc12)C(F)(F)F` (single isomer, unassigned; (+)) [106 b) (+), (+)-2-(1-(5-bromo-7-methyl-1H-indol-4-yl)-2,2,2-trifluoro-1-(methylamino)ethyl)-1H-benzo[d]imidazole-5-carbonitrile] was run?
The IC50 was 150 nM.

Which IC50 does the source give for `CCc1cc(C)c2[nH]ccc2c1C(NC)(c1nc2cc(C#N)ccc2[nH]1)C(F)(F)F` (single isomer, unassigned; (+)) [107-B b) (+), (+)-2-(1-(5-ethyl-7-methyl-1H-indol-4-yl)-2,2,2-trifluoro-1-(methylamino)ethyl)-1H-benzo[d]imidazole-5-carbonitrile] here?
The IC50 was 140 nM.

How did the IC50 turn out when `CCc1cc(C)c2[nH]ccc2c1C(N)(c1nc2cc(C#N)ccc2[nH]1)C(F)(F)F` (single isomer, unassigned; (+)) [107-C b) (+)] was run?
Its IC50 is 400 nM.

`Cc1cc(C2CC2)c(C(N)(c2nc3cc(C#N)ccc3[nH]2)C(F)(F)F)c2cc[nH]c12` (single isomer, unassigned; (+)) [107-D b) (+), (+)-2-(1-amino-1-(5-cyclopropyl-7-methyl-1H-indol-4-yl)-2,2,2-trifluoroethyl)-1H-benzo[d]imidazole-5-carbonitrile] was tested. Which IC50 did it give?
The IC50 was 50 nM.

Which IC50 does the source give for `CNC(c1nc2cc(C#N)ccc2[nH]1)(c1c(C2CC2)cc(C)c2[nH]ccc12)C(F)(F)F` (single isomer, unassigned; (+)) [107-E b) (+), (+)-2-(1-(5-cyclopropyl-7-methyl-1H-indol-4-yl)-2,2,2-trifluoro-1-(methylamino)ethyl)-1H-benzo[d]imidazole-5-carbonitrile] here?
Its IC50 is 240 nM.

With `COc1cc(C)c2c(c1C(C)(OC)c1nc3cc(C#N)ccc3[nH]1)CCN2` (single isomer, unassigned; (+)) [124 b) (+), (+)-2-(1-methoxy-1-(5-methoxy-7-methylindolin-4-yl)ethyl)-1H-benzo[d]imidazole-5-carbonitrile] as the compound, how does the IC50 read?
Its IC50 is 490 nM.

For `COc1cc(C)c2[nH]ccc2c1C(O)c1nc2cc(C#N)ccc2o1` (single isomer, unassigned; (+)) [125-B b) (+), (+)-2-(hydroxy(5-methoxy-7-methyl-1H-indol-4-yl)methyl)benzo[d]oxazole-5-carbonitrile], which IC50 is on record?
Its IC50 is 180 nM.

`COc1cc(C)c2[nH]ccc2c1C(O)(c1nc2cc(C#N)ccc2o1)C(F)(F)F` (single isomer, unassigned; (+)) [128-B b) (+), (+)-2-(2,2,2-trifluoro-1-hydroxy-1-(5-methoxy-7-methyl-1H-indol-4-yl)ethyl)benzo[d]oxazole-5-carbonitrile] was tested. Which IC50 did it give?
Its IC50 is 1990 nM.

`COc1cc(C)c2[nH]ccc2c1C(C)(N)c1nc2cc(C#N)ccc2o1` (single isomer, unassigned; (+)) [131-B b) (+), (+)-2-(1-amino-1-(5-methoxy-7-methyl-1H-indol-4-yl)ethyl)benzo[d]oxazole-5-carbonitrile] was tested. Which IC50 did it give?
The IC50 was 140 nM.

How did the IC50 turn out when `CCc1cc(C)c2[nH]cc(C(F)(F)F)c2c1C(C)(O)c1nc2cc(C#N)ccc2[nH]1` (single isomer, unassigned; (+)) [Example 88, (+)-2-(1-(5-Ethyl-7-methyl-3-(trifluoromethyl)-1H-indol-4-yl)-1-hydroxyethyl)-1H-benzo[d]imidazole-5-carbonitrile] was run?
Its IC50 is 57900 nM.

Which IC50 does the source give for `Cc1cc(OC(F)F)c(C(O)c2nc3cc(C#N)ccc3[nH]2)c2cc[nH]c12` (single isomer, unassigned; (-)) [3-B b) (−), (−)-2-((5-(difluoromethoxy)-7-methyl-1H-indol-4-yl)(hydroxy)methyl)-1H-benzo[d]imidazole-5-carbonitrile] here?
Its IC50 is 250 nM.

For `Cc1cc(OC(F)F)c(C(C)(N)c2nc3cc(C#N)ccc3[nH]2)c2cc[nH]c12` (single isomer, unassigned; (-)) [5-E b) (−), (−)-2-(1-amino-1-(5-(difluoromethoxy)-7-methyl-1H-indol-4-yl)ethyl)-1H-benzo[d]imidazole-5-carbonitrile], which IC50 is on record?
The IC50 was 40 nM.

How did the IC50 turn out when `COC(C)(c1nc2cc(C#N)ccc2[nH]1)c1c(OC(F)F)cc(C)c2[nH]ccc12` (single isomer, unassigned; (-)) [8-B b) (−), (−)-2-(1-(5-(difluoromethoxy)-7-methyl-1H-indol-4-yl)-1-methoxyethyl)-1H-benzo[d]imidazole-5-carbonitrile] was run?
The IC50 was 900 nM.

For `Cc1cc(S(C)(=O)=O)c(C(C)(N)c2nc3cc(C#N)ccc3[nH]2)c2cc[nH]c12` (single isomer, unassigned; (-)) [13-E b) (−), (−)-2-(1-Amino-1-(7-methyl-5-(methylsulfonyl)-1H-indol-4-yl)ethyl)-1H-benzo[d]imidazole-5-carbonitrile], which IC50 is on record?
The IC50 was 1410 nM.

How did the IC50 turn out when `Cc1cc(S(C)(=O)=O)c(C(O)(c2nc3cc(C#N)ccc3[nH]2)C(F)(F)F)c2cc[nH]c12` (single isomer, unassigned; (-)) [14-D b) (−), (−)-2-(2,2,2-trifluoro-1-hydroxy-1-(7-methyl-5-(methylsulfonyl)-1H-indol-4-yl)ethyl)-1H-benzo[d]imidazole-5-carbonitrile] was run?
Its IC50 is 270 nM.
